Measurements as given in ChEMBL document CHEMBL1156163, “(18)F Labeled benzimidazole derivatives as potential radiotracer for positron emission tomography (PET) tumor imaging” (Bioorg Med Chem, 2010).

How the values were obtained:
[1] = Ratio of drug uptake in tumor to blood of mouse S180 cells xenografted Kunming mouse at 10 to 20 uCi, iv after 120 mins by gamma counting; type: ADME, organism-based, CCRF S-180; conditions: tumour, 2 h
[2] = Ratio of drug uptake in tumor to muscle of mouse S180 cells xenografted Kunming mouse at 10 to 20 uCi, iv after 120 mins by gamma counting; type: ADME, organism-based, CCRF S-180; conditions: in vivo, 2 h
[3] = tested on: Heart; assay: Biodistribution in mouse S180 cells xenografted Kunming mouse heart at 10 to 20 uCi, iv after 5 mins by gamma counting; type: ADME, organism-based, CCRF S-180; conditions: in vivo
[4] = tested on: Pancreas; assay: Biodistribution in mouse S180 cells xenografted Kunming mouse pancreas at 10 to 20 uCi, iv after 5 mins by gamma counting; type: ADME, organism-based, CCRF S-180; conditions: in vivo
[5] = tested on: Lung; assay: Biodistribution in mouse S180 cells xenografted Kunming mouse lung at 10 to 20 uCi, iv after 5 mins by gamma counting; type: ADME, organism-based, CCRF S-180; conditions: in vivo
[6] = tested on: Kidney; assay: Biodistribution in mouse S180 cells xenografted Kunming mouse kidney at 10 to 20 uCi, iv after 5 mins by gamma counting; type: ADME, organism-based, CCRF S-180; conditions: in vivo
[7] = tested on: Brain; assay: Biodistribution in mouse S180 cells xenografted Kunming mouse brain at 10 to 20 uCi, iv after 5 mins by gamma counting; type: ADME, organism-based, CCRF S-180; conditions: in vivo
[8] = Ratio of drug uptake in tumor to muscle of mouse S180 cells xenografted Kunming mouse at 10 to 20 uCi, iv after 5 mins by gamma counting; type: ADME, organism-based, CCRF S-180; conditions: in vivo
[9] = Ratio of drug uptake in tumor to brain of mouse S180 cells xenografted Kunming mouse at 10 to 20 uCi, iv after 5 mins by gamma counting; type: ADME, organism-based, CCRF S-180; conditions: in vivo
[10] = tested on: Heart; assay: Biodistribution in mouse S180 cells xenografted Kunming mouse heart at 10 to 20 uCi, iv after 15 mins by gamma counting; type: ADME, organism-based, CCRF S-180; conditions: in vivo, 0.25 h
[11] = tested on: Pancreas; assay: Biodistribution in mouse S180 cells xenografted Kunming mouse pancreas at 10 to 20 uCi, iv after 15 mins by gamma counting; type: ADME, organism-based, CCRF S-180; conditions: in vivo, 0.25 h
[12] = tested on: Lung; assay: Biodistribution in mouse S180 cells xenografted Kunming mouse lung at 10 to 20 uCi, iv after 15 mins by gamma counting; type: ADME, organism-based, CCRF S-180; conditions: in vivo, 0.25 h
[13] = tested on: Kidney; assay: Biodistribution in mouse S180 cells xenografted Kunming mouse kidney at 10 to 20 uCi, iv after 15 mins by gamma counting; type: ADME, organism-based, CCRF S-180; conditions: in vivo, 0.25 h
[14] = tested on: Brain; assay: Biodistribution in mouse S180 cells xenografted Kunming mouse brain at 10 to 20 uCi, iv after 15 mins by gamma counting; type: ADME, organism-based, CCRF S-180; conditions: in vivo, 0.25 h
[15] = Biodistribution in mouse S180 cells xenografted Kunming mouse tumor at 10 to 20 uCi, iv after 15 mins by gamma counting; type: ADME, organism-based, Neoplasm, CCRF S-180; conditions: in vivo, 0.25 h
[16] = Ratio of drug uptake in tumor to blood of mouse S180 cells xenografted Kunming mouse at 10 to 20 uCi, iv after 15 mins by gamma counting; type: ADME, organism-based, CCRF S-180; conditions: tumour, 0.25 h
[17] = Ratio of drug uptake in tumor to muscle of mouse S180 cells xenografted Kunming mouse at 10 to 20 uCi, iv after 15 mins by gamma counting; type: ADME, organism-based, CCRF S-180; conditions: in vivo, 0.25 h
[18] = Ratio of drug uptake in tumor to brain of mouse S180 cells xenografted Kunming mouse at 10 to 20 uCi, iv after 15 mins by gamma counting; type: ADME, organism-based, CCRF S-180; conditions: in vivo, 0.25 h
[19] = tested on: Liver; assay: Biodistribution in mouse S180 cells xenografted Kunming mouse liver at 10 to 20 uCi, iv after 30 mins by gamma counting; type: ADME, organism-based, CCRF S-180; conditions: in vivo, 0.5 h
[20] = tested on: Pancreas; assay: Biodistribution in mouse S180 cells xenografted Kunming mouse pancreas at 10 to 20 uCi, iv after 30 mins by gamma counting; type: ADME, organism-based, CCRF S-180; conditions: in vivo, 0.5 h
[21] = tested on: Kidney; assay: Biodistribution in mouse S180 cells xenografted Kunming mouse kidney at 10 to 20 uCi, iv after 30 mins by gamma counting; type: ADME, organism-based, CCRF S-180; conditions: in vivo, 0.5 h
[22] = tested on: Muscle tissue; assay: Biodistribution in mouse S180 cells xenografted Kunming mouse muscle at 10 to 20 uCi, iv after 30 mins by gamma counting; type: ADME, organism-based, CCRF S-180; conditions: in vivo, 0.5 h
[23] = tested on: Blood; assay: Biodistribution in mouse S180 cells xenografted Kunming mouse blood at 10 to 20 uCi, iv after 30 mins by gamma counting; type: ADME, organism-based, CCRF S-180; conditions: in vivo, 0.5 h
[24] = tested on: Brain; assay: Biodistribution in mouse S180 cells xenografted Kunming mouse brain at 10 to 20 uCi, iv after 30 mins by gamma counting; type: ADME, organism-based, CCRF S-180; conditions: in vivo, 0.5 h
[25] = Biodistribution in mouse S180 cells xenografted Kunming mouse tumor at 10 to 20 uCi, iv after 30 mins by gamma counting; type: ADME, organism-based, Neoplasm, CCRF S-180; conditions: in vivo, 0.5 h
[26] = Ratio of drug uptake in tumor to muscle of mouse S180 cells xenografted Kunming mouse at 10 to 20 uCi, iv after 30 mins by gamma counting; type: ADME, organism-based, CCRF S-180; conditions: in vivo, 0.5 h
[27] = tested on: Heart; assay: Biodistribution in mouse S180 cells xenografted Kunming mouse heart at 10 to 20 uCi, iv after 60 mins by gamma counting; type: ADME, organism-based, CCRF S-180; conditions: in vivo, 1 h
[28] = tested on: Liver; assay: Biodistribution in mouse S180 cells xenografted Kunming mouse liver at 10 to 20 uCi, iv after 60 mins by gamma counting; type: ADME, organism-based, CCRF S-180; conditions: in vivo, 1 h
[29] = tested on: Pancreas; assay: Biodistribution in mouse S180 cells xenografted Kunming mouse pancreas at 10 to 20 uCi, iv after 60 mins by gamma counting; type: ADME, organism-based, CCRF S-180; conditions: in vivo, 1 h
[30] = tested on: Lung; assay: Biodistribution in mouse S180 cells xenografted Kunming mouse lung at 10 to 20 uCi, iv after 60 mins by gamma counting; type: ADME, organism-based, CCRF S-180; conditions: in vivo, 1 h
[31] = tested on: Kidney; assay: Biodistribution in mouse S180 cells xenografted Kunming mouse kidney at 10 to 20 uCi, iv after 60 mins by gamma counting; type: ADME, organism-based, CCRF S-180; conditions: in vivo, 1 h
[32] = tested on: Muscle tissue; assay: Biodistribution in mouse S180 cells xenografted Kunming mouse muscle at 10 to 20 uCi, iv after 60 mins by gamma counting; type: ADME, organism-based, CCRF S-180; conditions: in vivo, 1 h
[33] = tested on: Blood; assay: Biodistribution in mouse S180 cells xenografted Kunming mouse blood at 10 to 20 uCi, iv after 60 mins by gamma counting; type: ADME, organism-based, CCRF S-180; conditions: in vivo, 1 h
[34] = Biodistribution in mouse S180 cells xenografted Kunming mouse tumor at 10 to 20 uCi, iv after 60 mins by gamma counting; type: ADME, organism-based, Neoplasm, CCRF S-180; conditions: in vivo, 1 h
[35] = Ratio of drug uptake in tumor to blood of mouse S180 cells xenografted Kunming mouse at 10 to 20 uCi, iv after 60 mins by gamma counting; type: ADME, organism-based, CCRF S-180; conditions: tumour, 1 h
[36] = Ratio of drug uptake in tumor to muscle of mouse S180 cells xenografted Kunming mouse at 10 to 20 uCi, iv after 60 mins by gamma counting; type: ADME, organism-based, CCRF S-180; conditions: in vivo, 1 h
[37] = Ratio of drug uptake in tumor to brain of mouse S180 cells xenografted Kunming mouse at 10 to 20 uCi, iv after 60 mins by gamma counting; type: ADME, organism-based, CCRF S-180; conditions: in vivo, 1 h
[38] = tested on: Heart; assay: Biodistribution in mouse S180 cells xenografted Kunming mouse heart at 10 to 20 uCi, iv after 120 mins by gamma counting; type: ADME, organism-based, CCRF S-180; conditions: in vivo, 2 h
[39] = tested on: Liver; assay: Biodistribution in mouse S180 cells xenografted Kunming mouse liver at 10 to 20 uCi, iv after 120 mins by gamma counting; type: ADME, organism-based, CCRF S-180; conditions: in vivo, 2 h
[40] = tested on: Lung; assay: Biodistribution in mouse S180 cells xenografted Kunming mouse lung at 10 to 20 uCi, iv after 120 mins by gamma counting; type: ADME, organism-based, CCRF S-180; conditions: in vivo, 2 h
[41] = tested on: Kidney; assay: Biodistribution in mouse S180 cells xenografted Kunming mouse kidney at 10 to 20 uCi, iv after 120 mins by gamma counting; type: ADME, organism-based, CCRF S-180; conditions: in vivo, 2 h
[42] = tested on: Muscle tissue; assay: Biodistribution in mouse S180 cells xenografted Kunming mouse muscle at 10 to 20 uCi, iv after 120 mins by gamma counting; type: ADME, organism-based, CCRF S-180; conditions: in vivo, 2 h
[43] = tested on: Brain; assay: Biodistribution in mouse S180 cells xenografted Kunming mouse brain at 10 to 20 uCi, iv after 120 mins by gamma counting; type: ADME, organism-based, CCRF S-180; conditions: in vivo, 2 h

Compound: N[C@@H](Cc1ccc(OCC[18F])cc1)C(=O)O [FLORETYROSINE F18]
- Ratio [1]: 1.92
- Ratio [2]: 1.02
- Drug uptake [3]: 5.89 % ID/g
- Drug uptake [4]: 0.93 % ID/g
- Drug uptake [5]: 16.8 % ID/g
- Drug uptake [6]: 6.58 % ID/g
- Drug uptake [7]: 0.99 % ID/g
- Ratio [8]: 0.72
- Ratio [9]: 2.1
- Drug uptake [10]: 3.41 % ID/g
- Drug uptake [11]: 0.22 % ID/g
- Drug uptake [12]: 9.82 % ID/g
- Drug uptake [13]: 6.79 % ID/g
- Drug uptake [14]: 1.03 % ID/g
- Drug uptake [15]: 2.5 % ID/g
- Ratio [16]: 0.76
- Ratio [17]: 0.75
- Ratio [18]: 2.43
- Drug uptake [19]: 4.23 % ID/g
- Drug uptake [20]: 0.11 % ID/g
- Drug uptake [21]: 2.38 % ID/g
- Drug uptake [22]: 2.69 % ID/g
- Drug uptake [23]: 3.23 % ID/g
- Drug uptake [24]: 1.29 % ID/g
- Drug uptake [25]: 3.28 % ID/g
- Ratio [26]: 0.62
- Drug uptake [27]: 3.14 % ID/g
- Drug uptake [28]: 3.56 % ID/g
- Drug uptake [29]: 0.03 % ID/g
- Drug uptake [30]: 4.7 % ID/g
- Drug uptake [31]: 3.75 % ID/g
- Drug uptake [32]: 2.37 % ID/g
- Drug uptake [33]: 2.51 % ID/g
- Drug uptake [34]: 2.75 % ID/g
- Ratio [35]: 1.1
- Ratio [36]: 1.23
- Ratio [37]: 2.92
- Drug uptake [38]: 0.94 % ID/g
- Drug uptake [39]: 1.22 % ID/g
- Drug uptake [40]: 1.55 % ID/g
- Drug uptake [41]: 1.29 % ID/g
- Drug uptake [42]: 2.1 % ID/g
- Drug uptake [43]: 0.73 % ID/g
